According to PMC12003167 (Nature, 2025):

T1: chanoclavine synthase (EasC) from Claviceps fusiformis (EasCCf) (Claviceps fusiformis, UniProt A8C7R6)
T1 sequence (A8C7R6 1-479): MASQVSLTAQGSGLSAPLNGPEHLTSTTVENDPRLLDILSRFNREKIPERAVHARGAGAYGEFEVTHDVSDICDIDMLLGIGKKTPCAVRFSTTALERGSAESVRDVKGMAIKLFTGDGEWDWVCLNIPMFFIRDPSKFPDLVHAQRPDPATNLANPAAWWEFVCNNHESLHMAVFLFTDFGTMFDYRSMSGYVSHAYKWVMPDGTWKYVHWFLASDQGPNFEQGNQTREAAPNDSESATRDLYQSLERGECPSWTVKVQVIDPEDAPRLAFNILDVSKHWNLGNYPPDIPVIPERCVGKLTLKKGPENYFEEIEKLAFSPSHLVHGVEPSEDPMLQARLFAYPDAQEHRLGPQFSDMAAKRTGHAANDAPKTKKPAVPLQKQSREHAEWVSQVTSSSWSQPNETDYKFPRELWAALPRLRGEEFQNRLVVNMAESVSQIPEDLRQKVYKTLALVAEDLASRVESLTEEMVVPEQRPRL


Legend:
[1] = molecular target: T1, chanoclavine synthase (EasC) from Claviceps fusiformis (EasCCf); assay: PCC conversion assay by LC–MS; type: biochemical
cryo-EM structure = molecular target: the molecule itself; assay: cryo-EM structure

Row | Molecule | IC50 [1] [µM] | stoichiometry N (cryo-EM structure)
1 | NO [NH2OH, hydroxylamine] | 720 | –
2 | chanoclavine synthase (EasC) from Claviceps fusiformis (enzyme) MASQVSLTAQGSGLSAPLNGPEHLTSTTVENDPRLLDILSRFNREKIPERAVHARGAGAYGEFEVTHDVSDICDIDMLLGIGKKTPCAVRFSTTALERGSAESVRDVKGMAIKLFTGDGEWDWVCLNIPMFFIRDPSKFPDLVHAQRPDPATNLANPAAWWEFVCNNHESLHMAVFLFTDFGTMFDYRSMSGYVSHAYKWVMPDGTWKYVHWFLASDQGPNFEQGNQTREAAPNDSESATRDLYQSLERGECPSWTVKVQVIDPEDAPRLAFNILDVSKHWNLGNYPPDIPVIPERCVGKLTLKKGPENYFEEIEKLAFSPSHLVHGVEPSEDPMLQARLFAYPDAQEHRLGPQFSDMAAKRTGHAANDAPKTKKPAVPLQKQSREHAEWVSQVTSSSWSQPNETDYKFPRELWAALPRLRGEEFQNRLVVNMAESVSQIPEDLRQKVYKTLALVAEDLASRVESLTEEMVVPEQRPRL | – | 2
